Assay results taken from patent US20230113037A1 (Bayer Aktiengesellschaft, priority 2019, published 2023).

How the values were obtained:
[1] = target: T1, AHR (Homo sapiens, UniProt P35869); test: In vitro assay 1: antagonism in human cell line (AHR transactivation, firefly luciferase reporter, kynurenic acid prestimulated); format: cell-based; settings: AHR Antagonism Human IC50 [M]
T1 construct: U87 MG glioblastoma cells (ATCC #HTB-14) endogenously expressing AHR; endogenous in cells; host or cells: U87 MG glioblastoma cells (ATCC #HTB-14)
T1 sequence (P35869 11-848): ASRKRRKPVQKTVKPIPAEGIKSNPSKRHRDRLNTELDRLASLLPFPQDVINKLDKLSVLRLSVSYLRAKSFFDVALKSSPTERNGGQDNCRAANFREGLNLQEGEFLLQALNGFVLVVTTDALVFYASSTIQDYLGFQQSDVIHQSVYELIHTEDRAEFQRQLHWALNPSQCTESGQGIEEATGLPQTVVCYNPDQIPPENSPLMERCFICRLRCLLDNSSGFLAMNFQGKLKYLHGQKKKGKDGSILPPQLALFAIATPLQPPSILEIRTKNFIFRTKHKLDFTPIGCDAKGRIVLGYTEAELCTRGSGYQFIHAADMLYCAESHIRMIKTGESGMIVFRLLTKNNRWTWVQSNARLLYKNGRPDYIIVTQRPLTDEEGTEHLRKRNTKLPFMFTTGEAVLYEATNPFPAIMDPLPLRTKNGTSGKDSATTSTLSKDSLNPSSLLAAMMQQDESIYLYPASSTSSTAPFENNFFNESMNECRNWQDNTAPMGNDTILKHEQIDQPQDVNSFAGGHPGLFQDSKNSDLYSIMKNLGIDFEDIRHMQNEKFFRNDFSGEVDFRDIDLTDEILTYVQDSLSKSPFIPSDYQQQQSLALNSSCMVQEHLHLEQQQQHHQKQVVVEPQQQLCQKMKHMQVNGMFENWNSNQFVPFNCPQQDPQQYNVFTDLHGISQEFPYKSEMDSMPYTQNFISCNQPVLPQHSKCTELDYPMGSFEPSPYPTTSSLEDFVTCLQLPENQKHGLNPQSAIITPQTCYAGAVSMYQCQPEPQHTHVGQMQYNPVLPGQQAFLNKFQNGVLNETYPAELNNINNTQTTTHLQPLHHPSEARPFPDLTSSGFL
How it was run: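 Antagonism measured as loss of kynurenic acid-driven firefly luciferase from DRE reporter in stably transfected U87 MG cells; constitutive Renilla signal monitors cytotoxicity. Positive/negative control normalization, staurosporine 5 μM with 150 μM kynurenic acid as inhibition control; replicates given as mean or median.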

[2] = target: T2, AHR (Mus musculus, UniProt P30561); test: In vitro assay 3: antagonism in mouse cell line (AHR transactivation, firefly luciferase reporter, kynurenic acid prestimulated); format: cell-based; settings: mouse Hepa 1c1c7 cells, 200 μM kynurenic acid, 20 hours, read-out: AHR Antagonism Mouse IC50
T2 sequence (P30561 1-848 P471L/N533S/M589L): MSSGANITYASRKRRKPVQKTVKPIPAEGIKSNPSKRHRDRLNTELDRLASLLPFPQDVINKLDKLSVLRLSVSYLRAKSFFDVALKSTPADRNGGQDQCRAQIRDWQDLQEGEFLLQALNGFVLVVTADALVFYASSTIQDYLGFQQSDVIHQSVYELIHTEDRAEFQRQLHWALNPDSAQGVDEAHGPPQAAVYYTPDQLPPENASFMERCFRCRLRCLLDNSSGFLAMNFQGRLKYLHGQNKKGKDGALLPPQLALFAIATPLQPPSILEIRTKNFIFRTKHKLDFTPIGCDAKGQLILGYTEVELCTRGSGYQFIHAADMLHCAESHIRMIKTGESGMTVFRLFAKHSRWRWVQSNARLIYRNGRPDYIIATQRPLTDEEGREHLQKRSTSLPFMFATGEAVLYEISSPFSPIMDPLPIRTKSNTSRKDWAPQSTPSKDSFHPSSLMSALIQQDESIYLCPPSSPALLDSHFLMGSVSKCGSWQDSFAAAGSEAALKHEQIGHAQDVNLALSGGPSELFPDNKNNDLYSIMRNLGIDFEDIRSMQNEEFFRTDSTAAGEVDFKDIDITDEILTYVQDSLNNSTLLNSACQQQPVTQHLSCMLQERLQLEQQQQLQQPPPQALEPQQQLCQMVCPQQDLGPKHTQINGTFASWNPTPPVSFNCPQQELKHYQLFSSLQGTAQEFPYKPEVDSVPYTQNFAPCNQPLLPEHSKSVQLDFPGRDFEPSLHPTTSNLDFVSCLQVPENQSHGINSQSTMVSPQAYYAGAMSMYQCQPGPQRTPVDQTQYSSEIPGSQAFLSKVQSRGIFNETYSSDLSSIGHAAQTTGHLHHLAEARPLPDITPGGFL
How it was run: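 Luminescence from an AHR-dependent DRE-luciferase reporter, stably integrated in mouse cells, quantifies blockade of kynurenic acid-driven activation. Unstimulated cells mark maximal inhibition; normalization uses both control types, and multiply tested compounds carry mean or median values.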

For `CC[C@H](Nc1nc2ccccc2c2nc(-c3ccc(OC)cc3C(F)(F)F)nn12)C(N)=O` [Example 514, (2S)-2-({2-[4-methoxy-2-(trifluoromethyl)phenyl][1,2,4]triazolo[1,5-c]quinazolin-5-yl}amino)butanamide], which IC50 [1] is on record?
Its IC50 is over 2e-05 M.

What about the IC50 [2] of the same compound?
The IC50 was 188 nM.

What does the source list for `CC[C@@H](Nc1nc2ccccc2c2nc(-c3ccc(OC)cc3C(F)(F)F)nn12)C(N)=O` [Example 515, (2R)-2-({2-[4-methoxy-2-(trifluoromethyl)phenyl][1,2,4]triazolo[1,5-c]quinazolin-5-yl}amino)butanamide]?
IC50 [1]: 3.17e-08 M; IC50 [2]: 2.06 nM

Which results are given for `O=C1NCCCC[C@H]1Nc1nc2ccccc2c2nc(-c3ccc(F)cc3OC(F)(F)F)nn12` [Example 516, (3R)-3-({2-[4-fluoro-2-(trifluoromethoxy)phenyl][1,2,4]triazolo[1,5-c]quinazolin-5-yl}amino)azepan-2-one]?
IC50 [1]: 4.64e-09 M; IC50 [2]: 2.18 nM

Which IC50 [1] does the source give for `O=C1NCCCC[C@H]1Nc1nc2ccccc2c2nc(-c3ccc(Cl)cc3OC(F)(F)F)nn12` [Example 517, (3R)-3-({2-[4-chloro-2-(trifluoromethoxy)phenyl][1,2,4]triazolo[1,5-c]quinazolin-5-yl}amino)azepan-2-one] here?
Its IC50 is 1.47e-09 M.

What about the IC50 [2] of the same compound?
Its IC50 is 2.31 nM.

Which IC50 [1] does the source give for `O=C1NCCCC[C@@H]1Nc1nc2ccccc2c2nc(-c3ccc(Cl)cc3OC(F)(F)F)nn12` [Example 518, (3S)-3-({2-[4-chloro-2-(trifluoromethoxy)phenyl][1,2,4]triazolo[1,5-c]quinazolin-5-yl}amino)azepan-2-one] here?
The IC50 was 4.5e-08 M.

What about the IC50 [2] of the same compound?
The IC50 was 7.94 nM.

Which results are given for `O=C1NCCC[C@H]1Nc1nc2ccccc2c2nc(-c3ccc(Cl)cc3OC(F)(F)F)nn12` [Example 519, (3R)-3-({2-[4-chloro-2-(trifluoromethoxy)phenyl][1,2,4]triazolo[1,5-c]quinazolin-5-yl}amino)piperidin-2-one]?
IC50 [1]: 3.65e-08 M; IC50 [2]: 22.2 nM

Which IC50 [1] does the source give for `O=C1NCC[C@H]1Nc1nc2ccccc2c2nc(-c3ccc(Cl)cc3OC(F)(F)F)nn12` [Example 520, (3R)-3-({2-[4-chloro-2-(trifluoromethoxy)phenyl][1,2,4]triazolo[1,5-c]quinazolin-5-yl}amino)pyrrolidin-2-one] here?
Its IC50 is 3.05e-08 M.

And the IC50 [2]?
The IC50 was 9.59 nM.

Which IC50 [1] does the source give for `CCCCNC(=O)[C@H](C)Nc1nc2ccccc2c2nc(-c3ccc(Cl)cc3OC(F)(F)F)nn12` [Example 521, N-butyl-N^2-{2-[4-chloro-2-(trifluoromethoxy)phenyl][1,2,4]triazolo[1,5-c]quinazolin-5-yl}alaninamide] here?
Its IC50 is 2.04e-08 M.

What about the IC50 [2] of the same compound?
The IC50 was 12.2 nM.

Which IC50 [1] does the source give for `CC[C@H](Nc1nc2ccccc2c2nc(-c3ccc(Cl)cc3OC(F)(F)F)nn12)C(N)=O` [Example 522, (2S)-2-({2-[4-chloro-2-(trifluoromethoxy)phenyl][1,2,4]triazolo[1,5-c]quinazolin-5-yl}amino)butanamide] here?
Its IC50 is over 2e-05 M.

And the IC50 [2]?
Its IC50 is 29.1 nM.

With `CC[C@@H](Nc1nc2ccccc2c2nc(-c3ccc(Cl)cc3OC(F)(F)F)nn12)C(N)=O` [Example 523, (2R)-2-({2-[4-chloro-2-(trifluoromethoxy)phenyl][1,2,4]triazolo[1,5-c]quinazolin-5-yl}amino)butanamide] as the compound, how does the IC50 [1] read?
Its IC50 is 4.99e-09 M.

What about the IC50 [2] of the same compound?
Its IC50 is 0.84 nM.

Which results are given for `CC[C@H](Nc1nc2ccccc2c2nc(-c3ccc(Br)cc3OC(F)(F)F)nn12)C(N)=O` [Example 524, (2S)-2-({2-[4-bromo-2-(trifluoromethoxy)phenyl][1,2,4]triazolo[1,5-c]quinazolin-5-yl}amino)butanamide]?
IC50 [1]: 1.3e-07 M; IC50 [2]: 17.7 nM

With `O=C1NCCCC[C@@H]1Nc1nc2ccccc2c2nc(-c3ccc(Cl)cc3OC(F)F)nn12` [Example 526, (3S)-3-({2-[4-chloro-2-(difluoromethoxy)phenyl][1,2,4]triazolo[1,5-c]quinazolin-5-yl}amino)azepan-2-one] as the compound, how does the IC50 [1] read?
The IC50 was 1.47e-08 M.

And the IC50 [2]?
Its IC50 is 2.33 nM.

Which IC50 [1] does the source give for `O=C1NCC[C@H]1Nc1nc2ccccc2c2nc(-c3ccc(Cl)cc3OC(F)F)nn12` [Example 528, (3R)-3-({2-[4-chloro-2-(difluoromethoxy)phenyl][1,2,4]triazolo[1,5-c]quinazolin-5-yl}amino)pyrrolidin-2-one] here?
Its IC50 is 9.3e-09 M.

And the IC50 [2]?
The IC50 was 6.94 nM.
